Patent US20260306460A1, “COMPOSITION FOR REMOVING AND INHIBITING SENESCENT CELLS, AND USES THEREOF” (LIFECEUTIX CO., LTD., priority 2023, published 2026)

How the values were obtained:
[1] = tested on: naturally aged mice; test: Anti-aging evaluation in naturally aged mice, Example 31, Table 55; format: in vivo, mouse; conditions: for Femur Ctsk mRNA / Kidney Agtr1a mRNA / Liver IL6 mRNA / Liver MMP3 mRNA / Liver p16 mRNA / Open Field Test Time in Center: untreated = 100%; for Heart Sur2a mRNA / Joint Col2a1 mRNA / Skin Col1a1 mRNA / Skin SDF1 mRNA: untreated = 1.0; for Muscle Mass: untreated 0.64 g; for Fat Mass: untreated 0.82 g; for Cataract incidence: untreated 83%;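 for all read-outs here: Vehicle-dosed control mice received solution alone at matching volume, values compare test-compound-treated aged mice against that control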
[2] = tested on: naturally aged C57BL6J mice; test: p16 mRNA in organs of naturally aged mice, Example 21-2, Table 18; format: in vivo, mouse; conditions: 22-month-old naturally aged mice, untreated aged = 100%
Description: 22-month-old female C57BL6J mice (KRIBB Laboratory Animal Resource Center) were acclimated to the experimental environment for one week, after which the aged mice were randomly assigned to experimental and control groups. Eight-week-old, non-aged mice served as controls. LX-403 was mixed in a 10% ethanol solution of PEG400 and administered orally at a concentration of 25 mg/kg daily for 21 days, or administered to the skin, joints, or eyes at a concentration of 1 μM. LX-1801 was mixed in distilled water with 4% DMSO, 30% PEG300, and 5% Tween80 and administered to the skin, joints, or eyes at a concentration of 0.4 μM daily for 21 days. LX-2001 was mixed in PBS and administered to the skin, joints, or eyes at a concentration of […] daily for 21 days. LX-2002 was mixed in distilled water with 4% DMSO, 30% PEG300, and 5% Tween80 and administered to the skin, joints, or eyes at a concentration of 2 μM daily for 21 days. […] LX-2005 was mixed in distilled water with 4% DMSO, 30% PEG300, and 5% Tween80 and administered to the skin, joints, or eyes at a concentration of 90 μM daily for 21 days. LX-2007 was mixed in distilled water with 4% DMSO, 30% PEG300, and 5% Tween80 and administered to the skin, joints, or eyes at a concentration of 90 μM daily for 21 days. […] LX-3002 was mixed in distilled water with 4% DMSO, 30% PEG300, and 5% Tween80 and administered orally at a concentration of 10 mg/kg daily for 21 days. […] LX-5411 was mixed in 5% PBS and administered orally at a concentration of 10 mg/kg daily for 21 days or administered to the skin, joints, or eyes at a concentration of 3 μM. LX-5701 was mixed in PBS and administered orally at a concentration of 360 mg/kg daily for 21 days. LX-6807 was mixed in saline and administered intraperitoneally at a concentration of 1 mg/kg daily for 21 days. LX-2101 or LX-2102 was mixed in PBS solution with 5% DMSO and administered intraperitoneally at a concentration of 20 mg/kg or 10 mg/kg, respectively, daily for 21 days. The control group received only the solution in the same volume. After the end of drug administration, the methods described in each example below were performed.
Mice were sacrificed, and RNA was extracted from each organ tissue using the same method as in Example 7-2 of WO2023-085787 A1. qRT-PCR was performed with the synthesized cDNA. […] The amount of p16 mRNA after aging was calculated as 100% and compared with the amount of p16 mRNA after test compound treatment.

[3] = tested on: bleomycin-induced pulmonary fibrosis C57BL6J mice; test: Bleomycin pulmonary fibrosis in mice (p16, IL6, Col1a1 mRNA, alveoli size), Example 24-1, Table 47; format: in vivo, mouse; conditions: for Airspace enlargement: average size of alveoli, untreated 39.8 (±0.4); for Col1a1 mRNA / IL6 mRNA / p16 mRNA: lung, daily for 21 days, untreated 100%
Description: Eight-week-old male C57BL6J mice (KRIBB Laboratory Animal Resource Center) were acclimated to the experimental environment for one week. They were then administered the anticancer drug bleomyxin via intratracheal inhalation at a concentration of 2.5 mg/kg, inducing aging for more than 10 days. The aging-induced mice were randomly assigned to experimental and control groups. […] LX-3002 was mixed in distilled water with 4% DMSO, 30% PEG300, 5% tween80 and administered orally at a concentration of 10 mg/kg daily for 21 days. LX-5701 was mixed in PBS and administered orally at a concentration of 360 mg/kg daily for 21 days. LX-6807 was mixed in saline and administered intraperitoneally at a concentration of 1 mg/kg daily for 21 days. The control group received only the solution in the same volume. After the end of drug administration, mice were sacrificed in the same manner as in Example 7-2 of WO2023-085787 A1, RNA was extracted from lung tissue, and qRT-PCR (quantitative real-time PCR) was performed and analyzed using the synthesized cDNA. […] The amount of mRNA after aging was calculated as 100%, and the results after treatment with the test compound were compared. Furthermore, paraffin sections were stained with hematoxylin/eosin (H/E), and the size of alveoli was measured under an optical microscope to assess the degree of lung function impairment due to pulmonary fibrosis.

[4] = tested on: obesity-induced aged C57BL6J mice; test: Fatty liver (Oil Red O, AST, ALT) in obesity-aged mice, Example 23-5, Table 45; format: in vivo, mouse; conditions: daily for 21 days, untreated 100%; for ALT / AST: serum; for Oil Red O: staining area, liver
Description: After acclimation to the experimental environment for one week, the mice were randomly assigned to experimental and control groups. […] The control group received only the solution in the same volume. After the end of drug administration, the methods described in each example below were performed.

[5] = tested on: SHR/Izm rats; test: Geriatric hypertension in SHR/Izm rats (p16 mRNA, blood pressure), Example 30, Table 54; format: in vivo, rat; conditions: for Blood pressure: tail cuff, untreated 195 (±13.3); for p16 mRNA: thoracic aorta, untreated 100%
Description: Ten-week-old male SHR/Izm rats (SLC), a model of essential hypertension, were acclimated to the experimental environment for one week. […] The control group received only the solution in the same volume. After drug administration, the blood pressure of the experimental animals was measured, and RNA was extracted from the thoracic aorta in the same manner as in Example 7-2 of WO2023-085787 A1. The synthesized cDNA was used for qRT-PCR. Blood pressure measurements were performed three times using a blood pressure monitor (IITC) after the animals were allowed to rest for approximately 10 minutes in a measuring holder with a cuff attached to the caudal vein. […] The mRNA levels after aging were calculated as 100% and compared with the mRNA levels of p16 after treatment with the test compound.

[6] = tested on: doxorubicin-induced aged C57BL6J mice; test: Liver damage (AST, ALT) in doxorubicin-aged mice, Example 22-8, Table 37; format: in vivo, mouse; conditions: serum, amount after aging calculated as 100%
Description: Eight-week-old male C57BL6J mice (KRIBB Laboratory Animal Resource Center) were acclimated to the experimental environment for one week. […] The aging-induced mice were randomly assigned to experimental and control groups. […] The control group received only the solution in the same volume.
The amounts were measured spectrophotometrically using a kit (Sigma) according to the manufacturer's instructions. […] The amount of each factor after aging was calculated as 100% and compared with the amount of each factor after treatment with the test compound.

## O=C(C(C[N+](=O)[O-])=NO)N1CCN(C(c2ccc(Cl)cc2)c2ccc(Cl)cc2)CC1 [LX-403]
[1]
  Femur Ctsk mRNA: 22%
  Heart Sur2a mRNA: 2.9 fold
  Joint Col2a1 mRNA: 3.4 fold
  Kidney Agtr1a mRNA: 64%
  Liver IL6 mRNA: 53%
  Liver MMP3 mRNA: 45%
  Liver p16 mRNA: 34%
  Open Field Test Time in Center: 237%
  Skin Col1a1 mRNA: 2.8 Fold
  Skin SDF1 mRNA: 2.7 fold
  Muscle Mass: 0.76 g
  Fat Mass: 0.98 g
  Cataract incidence: 64%

## S=C(N/N=C1\CCCc2cccnc21)N1CCN(c2ccccn2)CC1 [LX-801]
[1]
  Femur Ctsk mRNA: 70%
  Heart Sur2a mRNA: 2.8 fold
  Joint Col2a1 mRNA: 2.7 fold
  Kidney Agtr1a mRNA: 55%
  Liver IL6 mRNA: 64%
  Liver MMP3 mRNA: 35%
  Liver p16 mRNA: 53%
  Open Field Test Time in Center: 222%
  Skin Col1a1 mRNA: 2.1 Fold
  Skin SDF1 mRNA: 2.1 fold
  Muscle Mass: 0.77 g
  Fat Mass: 1.09 g
  Cataract incidence: 57%

## C[C@@H]1CC[C@@]23C[C@H](O)C(=O)[C@@]2(O)[C@]1(C)[C@H](OC(=O)CCl)C[C@@H](C1=CCn2c(=O)n(-c4ccccc4)c(=O)n2C1)[C@@H]3C [LX-1801, (2S,3aS,4S,5R,7R,8S,8aS,11R)-7-(1,3-Dioxo-2-phenyl-2,3,5,8-tetrahydro-1H-[1,2,4]triazolo[1,2-a]pyridazin-6-yl)-2,3a-dihydroxy-4,8,11-trimethyl-3-oxooctahydro-1H-4,8a-propanoazulen-5-yl 2-Chloroacetate]
[1]
  Femur Ctsk mRNA: 69%
  Heart Sur2a mRNA: 2.7 fold
  Joint Col2a1 mRNA: 2.6 fold
  Kidney Agtr1a mRNA: 48%
  Liver IL6 mRNA: 53%
  Liver MMP3 mRNA: 49%
  Liver p16 mRNA: 42%
  Open Field Test Time in Center: 287%
  Skin Col1a1 mRNA: 1.9 Fold
  Skin SDF1 mRNA: 2.2 fold
  Muscle Mass: 0.78 g
  Fat Mass: 1.16 g
  Cataract incidence: 35%

## CC1(C)CC[C@]2(NC(=O)C(C)(F)F)CC[C@]3(C)[C@H](C(=O)C=C4[C@@]5(C)C=C(C#N)C(=O)C(C)(C)[C@@H]5CC[C@]43C)[C@@H]2C1 [LX-2101, Omaveloxolone]
[2]
  p16 mRNA (%), Brain: 62%
  p16 mRNA (%), Eye: 62%
  p16 mRNA (%), Femur: 61%
  p16 mRNA (%), Heart: 78%
  p16 mRNA (%), Kidney: 46%
  p16 mRNA (%), Knee joint: 75%
  p16 mRNA (%), Liver: 62%
  p16 mRNA (%), Lung: 54%
  p16 mRNA (%), Muscle: 82%
  p16 mRNA (%), Skin: 80%
  p16 mRNA (%), eWAT: 42%

## COC(=O)[C@]12CCC(C)(C)C[C@H]1[C@H]1C(=O)C=C3[C@@]4(C)C=C(C#N)C(=O)C(C)(C)[C@@H]4CC[C@@]3(C)[C@]1(C)CC2 [LX-2102, Bardoxolone methyl]
[2]
  p16 mRNA (%), Brain: 85%
  p16 mRNA (%), Eye: 72%
  p16 mRNA (%), Femur: 64%
  p16 mRNA (%), Heart: 81%
  p16 mRNA (%), Kidney: 53%
  p16 mRNA (%), Knee joint: 64%
  p16 mRNA (%), Liver: 58%
  p16 mRNA (%), Lung: 71%
  p16 mRNA (%), Muscle: 75%
  p16 mRNA (%), Skin: 77%
  p16 mRNA (%), eWAT: 39%

## CCCC\C=C/C=C/C=C\CCCCCCCC(=O)O [LX-2707, Punicic acid]
[3]
  Airspace enlargement: 35.4 (±1.8) μm
  Col1a1 mRNA: 70 (±6.5) %
  IL6 mRNA: 38 (±4.1) %
  p16 mRNA: 43 (±4.2) %
[4]
  ALT: 64 (±3.1) %
  AST: 75 (±2.1) %
  Oil Red O: 67 (±1.7) %
[5]
  Blood pressure: 160.1 (±23.1) mmHg
  p16 mRNA: 64 (±8.5) %
[6]
  ALT: 76 (±5.6) %
  AST: 70 (±3.2) %

## COC(=O)[C@H]1Cc2c([nH]c3ccccc23)[C@H](c2ccc(S(C)(=O)=O)cc2)N1C(=O)CCl [LX-5401, methyl (1S,3R)-2-(2-chloroacetyl)-1-(4-(methylsulfonyl)phenyl)-2,3,4,9-tetrahydro-1H-pyrido[3,4-b]indole-3-carboxylate]
[1]
  Femur Ctsk mRNA: 42%
  Heart Sur2a mRNA: 1.7 fold
  Joint Col2a1 mRNA: 1.6 fold
  Kidney Agtr1a mRNA: 73%
  Liver IL6 mRNA: 55%
  Liver MMP3 mRNA: 81%
  Liver p16 mRNA: 73%
  Open Field Test Time in Center: 179%
  Muscle Mass: 0.69 g
  Fat Mass: 0.89 g
  Cataract incidence: 77%

## C#CC(=O)N1[C@@H](CCCC)Cc2cc(OC)ccc2[C@@H]1c1ccc(NC23CC4CC(CC(C4)C2)C3)cc1 [LX-5411]
[1]
  Femur Ctsk mRNA: 71%
  Heart Sur2a mRNA: 2.5 fold
  Joint Col2a1 mRNA: 2.0 fold
  Kidney Agtr1a mRNA: 68%
  Liver IL6 mRNA: 63%
  Liver MMP3 mRNA: 58%
  Liver p16 mRNA: 65%
  Open Field Test Time in Center: 214%
  Skin Col1a1 mRNA: 1.6 Fold
  Skin SDF1 mRNA: 1.9 fold
  Muscle Mass: 0.74 g
  Fat Mass: 1.21 g
  Cataract incidence: 52%

## Cc1cccc([C@H](C)c2cnc[nH]2)c1C [LX-6807, Dexmedetomidine]
[3]
  Airspace enlargement: 33.8 (±3.6) μm
  Col1a1 mRNA: 56 (±3.6) %
  IL6 mRNA: 48 (±2.4) %
  p16 mRNA: 54 (±1.9) %
[4]
  ALT: 70 (±6.4) %
  AST: 66 (±4.4) %
  Oil Red O: 53 (±3.9) %
[5]
  Blood pressure: 157.8 (±19.3) mmHg
  p16 mRNA: 66 (±5.0) %
[6]
  ALT: 80 (±6.7) %
  AST: 75 (±7.0) %

## Tocofersolan [LX-3001]
[3]
  Airspace enlargement: 36.2 (±2.2) μm
  Col1a1 mRNA: 64 (±3.9) %
  IL6 mRNA: 51 (±3.6) %
  p16 mRNA: 65 (±3.8) %
[4]
  ALT: 71 (±1.3) %
  Oil Red O: 83 (±4.0) %
[5]
  Blood pressure: 172.9 (±14.6) mmHg
  p16 mRNA: 71 (±3.6) %
